Measured values as given in US10131652B2, “Pyrimidinyloxy benzene derivatives as herbicides” (E. I. DU PONT DE NEMOURS AND COMPANY, priority 2014, dated 2018).

Assays:
Assay type in all cases: in vivo
[1] = tested on: Italian ryegrass (Lolium multiflorum); test: Test B pre-/postemergence plant response
Method in brief: (§1)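 Visual injury scores on a 0–100 scale (100 = complete control) relative to untreated plants, taken about 10 days post-treatment in greenhouse. Treatments were a directed preemergence soil spray and a postemergence spray at one- to two-leaf stage, using surfactant-containing solvent formulation.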

[2] = tested on: barnyardgrass (Echinochloa crus-galli); test: Test B pre-/postemergence plant response
Method in brief: as §1

corn (Zea mays) = test: Test B pre-/postemergence plant response
Method in brief: as §1

[3] = tested on: giant foxtail (Setaria faberii); test: Test B pre-/postemergence plant response
Method in brief: as §1

kochia (Kochia scoparia) [4] = test: Test B pre-/postemergence plant response
Method in brief: as §1

[5] = tested on: pigweed (Amaranthus retroflexus); test: Test B pre-/postemergence plant response
Method in brief: as §1

[6] = tested on: ragweed (common ragweed, Ambrosia elatior); test: Test B pre-/postemergence plant response
Method in brief: as §1

[7] = tested on: wheat (Triticum aestivum); test: Test B pre-/postemergence plant response
Method in brief: as §1

[8] = tested on: blackgrass (Alopecurus myosuroides); test: Test B postemergence plant response
Method in brief: (§2)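 Visual injury ratings, 0 = no effect to 100 = complete control, versus untreated controls approximately 10 days after postemergence spraying in greenhouse. Plants were at one- to two-leaf stage, 2 to 10 cm tall, in loam soil/sand blend; a dash denotes no result.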

[9] = tested on: galium (catchweed bedstraw, Galium aparine); test: Test B postemergence plant response
Method in brief: as §2

[10] = tested on: barnyardgrass (Echinochloa crus-galli); test: Test C flooded paddy test plant response; conditions: Flood, 250 g ai/ha; scale of 0 to 100 where 0 is no effect and 100 is complete control; 13 to 15 days
Method in brief: (§3)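 2-leaf plants; flood 3 cm, cpd into paddy water; greenhouse 13–15 d; visual score vs untreated, 0 = no effect, 100 = complete control; dash = no result.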

[11] = tested on: ducksalad (Heteranthera limosa); test: Test C flooded paddy test plant response; conditions: Flood, 250 g ai/ha; scale of 0 to 100 where 0 is no effect and 100 is complete control; 13 to 15 days
Method in brief: as §3

rice (Oryza sativa) = test: Test C flooded paddy test plant response; conditions: Flood, 250 g ai/ha; scale of 0 to 100 where 0 is no effect and 100 is complete control; 13 to 15 days
Method in brief: as §3

[12] = tested on: small-flower umbrella sedge (Cyperus difformis); test: Test C flooded paddy test plant response; conditions: Flood, 250 g ai/ha; scale of 0 to 100 where 0 is no effect and 100 is complete control; 13 to 15 days
Method in brief: as §3

[13] = tested on: chickweed (common chickweed, Stellaria media); test: Test D postemergence plant response; conditions: for Chickweed plant response rating: scale 0 to 100 (0 no effect, 100 complete control); for Plant response rating, Chickweed: scale 0 to 100, 0 no effect, 100 complete control
Method in brief: (§4)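 Visual scoring from 0 (no effect) to 100 (complete control), relative to controls, 13–15 days after treatment in the greenhouse. Compounds were applied postemergence at the 1- to 4-leaf stage (2–18 cm) to potted plants in peat-based medium.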

kochia (Kochia scoparia) [14] = test: Test D postemergence plant response; conditions: for Kochia plant response rating: 31 g ai/ha, scale 0 to 100 (0 no effect, 100 complete control); for Plant response rating, Kochia: scale 0 to 100, 0 no effect, 100 complete control
Method in brief: as §4

wild oat (Avena fatua) = test: Test D postemergence plant response; conditions: for Oat, Wild plant response rating: 31 g ai/ha, scale 0 to 100 (0 no effect, 100 complete control); for Plant response rating, Oat, Wild: scale 0 to 100, 0 no effect, 100 complete control
Method in brief: as §4

[15] = 31 g ai/ha, Preemergence, 0 to 100 scale where 0 is no effect and 100 is complete control
[16] = 125 g ai/ha, postemergence, 0 to 100 scale, 0 no effect, 100 complete control
[17] = Preemergence, 125 g ai/ha, 0 to 100 scale (0 no effect, 100 complete control)
[18] = 31 g ai/ha, Postemergence, 0 to 100 scale, 0 no effect, 100 complete control
[19] = Postemergence, 31 g ai/ha, 0 to 100 scale (0 no effect, 100 complete control)

FC(F)Oc1cccc(Oc2ncc(Cl)cn2)c1-c1cc(C(F)F)on1 [Compound 131]
Plant response rating, Ryegrass, Italian [1, 15]: 20 | Plant response rating, Ryegrass, Italian [1, 16]: 70 | Ryegrass, Italian plant response rating [1, 17]: 90 | Plant response rating, Barnyardgrass [2, 18]: 50 | Plant response rating, Barnyardgrass [2, 15]: 80 | Plant response rating, Barnyardgrass [2, 16]: 90 | Barnyardgrass plant response rating [2, 17]: 100 | Plant response rating, Corn (corn (Zea mays); [18]): 20 | Plant response rating, Corn (corn (Zea mays); [16]): 40 | Plant response rating, Foxtail, Giant [3, 18]: 50 | Plant response rating, Foxtail, Giant [3, 15]: 100 | Plant response rating, Foxtail, Giant [3, 16]: 90 | Foxtail, Giant plant response rating [3, 17]: 100 | Plant response rating, Kochia (kochia (Kochia scoparia) [4]; [15]): 0 | Plant response rating, Kochia (kochia (Kochia scoparia) [4]; [16]): 70 | Kochia plant response rating (kochia (Kochia scoparia) [4]; [17]): 10 | Plant response rating, Pigweed [5, 15]: 100 | Plant response rating, Pigweed [5, 16]: 100 | Pigweed plant response rating [5, 17]: 100 | Plant response rating, Ragweed [6, 15]: 20 | Plant response rating, Ragweed [6, 16]: 70 | Ragweed plant response rating [6, 17]: 60 | Plant response rating, Wheat [7, 16]: 30 | Plant response rating, Blackgrass [8, 18]: 50 | Plant response rating, Blackgrass [8, 16]: 80 | Plant response rating, Galium [9, 16]: 90 | Barnyardgrass plant response rating [10]: 75 | Ducksalad plant response rating [11]: 95 | Rice plant response rating (rice (Oryza sativa)): 60 | Sedge, Umbrella plant response rating [12]: 95 | Chickweed plant response rating ([13]; 16 g ai/ha): 65 | Chickweed plant response rating ([13]; 31 g ai/ha): 80 | Plant response rating, Chickweed ([13]; 62 g ai/ha): 98 | Plant response rating, Chickweed ([13]; 125 g ai/ha): 100 | Kochia plant response rating (kochia (Kochia scoparia) [14]): 90 | Plant response rating, Kochia (kochia (Kochia scoparia) [14]; 62 g ai/ha): 95 | Plant response rating, Kochia (kochia (Kochia scoparia) [14]; 125 g ai/ha): 100 | Oat, Wild plant response rating (wild oat (Avena fatua)): 15 | Plant response rating, Oat, Wild (wild oat (Avena fatua); 62 g ai/ha): 20 | Plant response rating, Oat, Wild (wild oat (Avena fatua); 125 g ai/ha): 35

FC(F)(Cl)c1cc(-c2ccccc2Oc2ncc(Cl)cn2)no1 [Compound 143]
Plant response rating, Ryegrass, Italian [1, 15]: 0 | Plant response rating, Ryegrass, Italian [1, 16]: 50 | Plant response rating, Ryegrass, Italian [1, 19]: 0 | Ryegrass, Italian plant response rating [1, 17]: 60 | Plant response rating, Barnyardgrass [2, 15]: 20 | Plant response rating, Barnyardgrass [2, 16]: 90 | Plant response rating, Barnyardgrass [2, 19]: 10 | Barnyardgrass plant response rating [2, 17]: 90 | Plant response rating, Corn (corn (Zea mays); [16]): 30 | Plant response rating, Corn (corn (Zea mays); [19]): 40 | Plant response rating, Foxtail, Giant [3, 15]: 70 | Plant response rating, Foxtail, Giant [3, 16]: 80 | Plant response rating, Foxtail, Giant [3, 19]: 10 | Foxtail, Giant plant response rating [3, 17]: 100 | Plant response rating, Kochia (kochia (Kochia scoparia) [4]; [15]): 30 | Plant response rating, Kochia (kochia (Kochia scoparia) [4]; [16]): 100 | Plant response rating, Kochia (kochia (Kochia scoparia) [4]; [19]): 100 | Kochia plant response rating (kochia (Kochia scoparia) [4]; [17]): 90 | Plant response rating, Pigweed [5, 15]: 90 | Plant response rating, Pigweed [5, 16]: 100 | Plant response rating, Pigweed [5, 19]: 90 | Pigweed plant response rating [5, 17]: 100 | Plant response rating, Ragweed [6, 15]: 0 | Plant response rating, Ragweed [6, 16]: 20 | Plant response rating, Ragweed [6, 19]: 0 | Ragweed plant response rating [6, 17]: 30 | Plant response rating, Wheat [7, 16]: 30 | Plant response rating, Wheat [7, 19]: 20 | Plant response rating, Blackgrass [8, 16]: 60 | Plant response rating, Blackgrass [8, 19]: 30 | Plant response rating, Galium [9, 16]: 100 | Plant response rating, Galium [9, 19]: 50 | Barnyardgrass plant response rating [10]: 30 | Ducksalad plant response rating [11]: 85 | Rice plant response rating (rice (Oryza sativa)): 35 | Sedge, Umbrella plant response rating [12]: 100 | Chickweed plant response rating ([13]; 16 g ai/ha): 45 | Chickweed plant response rating ([13]; 31 g ai/ha): 50 | Plant response rating, Chickweed ([13]; 62 g ai/ha): 60 | Plant response rating, Chickweed ([13]; 125 g ai/ha): 80 | Kochia plant response rating (kochia (Kochia scoparia) [14]): 100 | Plant response rating, Kochia (kochia (Kochia scoparia) [14]; 62 g ai/ha): 100 | Plant response rating, Kochia (kochia (Kochia scoparia) [14]; 125 g ai/ha): 100 | Oat, Wild plant response rating (wild oat (Avena fatua)): 0 | Plant response rating, Oat, Wild (wild oat (Avena fatua); 62 g ai/ha): 5 | Plant response rating, Oat, Wild (wild oat (Avena fatua); 125 g ai/ha): 5
